In patent US12486253B2, “Therapeutics for the degradation of mutant BRAF” (C4 THERAPEUTICS, INC., priority 2021, dated 2025):
Entries after “also recorded” stand apart in the source; their conditions may differ.

Columns and labels:
[1] = test system: H1666 cells endogenously expressing the class III BRAF mutation G466V; assay: Cellular growth over time in H1666 cells; assay type: cell-based; conditions: G466V
A375 cells [2] = assay: CellTiter-Glo cell growth inhibition, A375 cells; assay type: cell-based; conditions: Homo sapiens, A-375, 72 hr, mean of at least n = 3
Protocol: (§1) A375 cell viability was determined based on quantification of ATP using CellTiter-Glo® 2.0 luminescent Assay kit, which signals the presence of metabolically-active cells. Briefly, test compound was added to 384-well plates at a top concentration of 10 μM with 14 points, half log titration in duplicates. A375 cells were seeded into the 384-well plates in DMEM medium containing 10% FBS at a cell density of 250 cells per well. Cells treated in the absence of the test compound were the negative control, normalized to 100% viability, and cells treated in the absence of CellTiter-Glo® 2.0 were the positive control, normalized to 0% viability. A375 cells were incubated at 37° C. with 5% CO2 for 72 hr. CellTiter-Glo reagent was then added to the cells and Luminescence was acquired on EnVision™ Multilabel Reader (PerkinElmer, Santa Clara, CA, USA).

[3] = test system: A375 cells expressing the oncogenic NRAS^Q61K mutation; assay: Cellular growth over time of A375 cells expressing NRAS^Q61K; assay type: cell-based
ERK phosphorylation [4] = assay: ERK phosphorylation (pERK) in A375 cells; assay type: cell-based
A375-NRAS^Q61K cells = assay: CellTiter-Glo growth inhibition assay, A375-NRAS^Q61K cells; assay type: cell-based; conditions: 96 hr, mean of at least n = 3
Protocol: (§2) A375-NRAS^Q61K cells (harboring BRAF homozygous V600E mutation and NRAS homozygous Q61K mutation) were purchased from ATCC. DMEM Medium (without phenol red and supplemented with L-glutamine) was purchased from Corning (Corning, NY, USA). CellTiter-Glo® 2.0 Assay was purchased from Promega (Madison, WI, USA). Cell culture flasks and 384-well microplates were acquired from VWR (Radnor, PA, USA) or Corning (Corning, NY, USA).
as §1, with “A375-NRAS^Q61K cell viability” for “A375 cell viability”, “in duplicates. A375-NRAS^Q61K cells were” for “in duplicates. A375 cells were”, “CO2 for 96 hr. CellTiter-Glo” for “CO2 for 72 hr. CellTiter-Glo”

phospho-ERK (T202/Y204) [5] = assay: HTRF phospho-ERK (T202/Y204) assay in A375-NRAS^Q61K cells; assay type: cell-based; conditions: 24 hrs, mean of at least n = 3, read-out: pERK IC50
Description: as §2, with “without” for “(without”, “L-glutamine” for “L-glutamine)”, “Advanced phospho-ERK (Thr202/Tyr204) HTRF assay kits were” for “CellTiter-Glo® 2.0 Assay was”, “Cisbio (Bedford, MA,” for “Promega (Madison, WI,”
(§3) Degradation of activated phospho-ERK (T202/Y204) protein was determined based on quantification of FRET signal using the Advanced phospho-ERK (T202/Y204) HTRF assay kit. Test compounds were added to the 384-well plate from a top concentration of 10 μM with 11 points, half log titration in duplicates. A375-NRAS^Q61K cells were added into 384-well plates at a cell density of 2000 cells per well. The plates were kept at 37° C. with 5% CO2 for 24 hours. Cells treated in the absence of the test compound were the negative control. Positive control was set by wells containing all reagents but no cells. FRET signal was acquired on EnVision™ Multilabel Reader (PerkinElmer, Santa Clara, CA, USA).

A375 cells [6] = assay: Cellular confluence of A375 cells by live cell imaging; assay type: cell-based; conditions: end of the 7-day experiment
[7] = target: BRAF V600E, test compound and CRBN ternary complex (Homo sapiens, UniProt P15056+Q96SW2, V600E); assay: AlphaLISA ternary complex formation assay; assay type: binding; conditions: GST-BRAF V600E 16 nM, His-CRBN 64 nM
Protocol: Formation of the ternary complex between BRAF V600E, test compound and CRBN was quantified using AlphaLISA® assay. GST-tagged BRAF V600E and His-tagged CRBN were labeled with a donor/acceptor AlphaLISA® pair, and complex formation was monitored via a change in the Alpha-signal. Signal from the control wells was used as a normalization control.
Characterization of the ternary complex formation between GST-BRAF V600E, Compound 157 and his-CRBN was carried out using an AlphaLISA® assay. Compounds were dispensed from serially diluted DMSO stock in low dead volume plates into gray 384-well AlphaPlates using acoustic technology to 1% of total reaction volume. Compounds were arranged vertically in rows A through P. Concentration series were horizontal: columns 1-11, and then duplicates in columns 12-22.
Excitation of the donor beads results in generation of singlet oxygen molecules. […]
A 10 μL mixture containing 16 nM of BRAF V600E and 64 nM of CRBN in 50 mM HEPES (pH 7.4), 200 mM NaCl, 1 mM TCEP, 0.05% Pluronic Acid, 0.1% BSA was added to the wells containing test compounds (columns 1-22) and the negative control wells (column 23). […] Plates were then read on an Envision plate reader with an appropriate AlphaLISA® filter set.

BRAF V600E = BRAF V600E (Homo sapiens, UniProt P15056, V600E); assay: Western blot of BRAF V600E levels in A375 cells; assay type: cell-based; set-up: host or cells: A375
phospho-ERK (T202/Y204) [8] = assay: HTRF phospho-ERK (T202/Y204) inhibition assay in A375 cells; assay type: cell-based; conditions: Homo sapiens, A-375, 24 hrs, mean of at least n = 3, read-out: pERK IC50
Protocol: A375 (harboring BRAF homozygous V600E mutation) were purchased from ATCC. DMEM Medium without phenol red and supplemented with L-glutamine was purchased from Corning (Corning, NY, USA). Advanced phospho-ERK (Thr202/Tyr204) HTRF assay kits were purchased from Cisbio (Bedford, MA, USA). Cell culture flasks and 384-well microplates were acquired from VWR (Radnor, PA, USA) or Corning (Corning, NY, USA).
as §3, with “A375” for “A375-NRAS^Q61K”, “8000” for “2000”, “well, respectively.” for “well.”

LOXL4 = assay: Global proteomics profiling, A375 cells; assay type: cell-based, human; conditions: 300 nM, 24 hours
Protocol: Each cell line was treated in duplicate with either DMSO or Compound 157 (final concentration 300 nM) for 24 hours in an incubator at 37° C. with 5% CO2. After the 24-hour incubation, cells were harvested, washed twice with PBS, and snap frozen in liquid nitrogen. Samples were re-suspended in lysis buffer [8 M urea, 50 mM HEPES (pH 8.5), 50 mM NaCl, 1× protease inhibitor cocktail] and lysed by sonication at 4° C. with 85% amplitude in a pulse setting with 30 seconds on and 30 seconds off for a total sonication time of 5 minutes. Lysates were centrifuged at maximum speed for 10 minutes at 4° C. and the supernatant collected, reduced for 1 hour at room temperature with 5 mM TCEP, and the cysteine residues were then alkylated with 15 mM iodoacetamide (room temperature, in dark, 30 minutes). Protein content was extracted by methanol-chloroform precipitation and subsequent ice-cold acetone washes. Protein pellets were resuspended in 8 M urea, 50 mM HEPES (pH 8.5) buffer and protein concentrations were measured by BCA assay. […]
For peptide tandem mass tag (TMT) labeling, 100 μg of peptides per sample was prepared at […] concentration in 200 mM HEPES (pH 8.5), 30% acetonitrile (ACN) and each the specific TMT reagent. […] TMT reporter ion intensities were quantified by extracting the signal-to-noise ratio for each. […]

ERK phosphorylation [9] = assay: Western blot of ERK phosphorylation in A375 cells expressing NRAS^Q61K; assay type: cell-based; conditions: 24 hours
[10] = test system: A375 NRAS^Q61K mutant melanoma cell line xenograft; assay: In vivo efficacy in A375 NRAS^Q61K mutant melanoma xenograft; set-up: species or system BALBc/Nude mice; conditions: oral gavage, with MEKi trametinib 0.1 mg/kg BID

BRAF V600E, sequence (P15056 whole entry V600E): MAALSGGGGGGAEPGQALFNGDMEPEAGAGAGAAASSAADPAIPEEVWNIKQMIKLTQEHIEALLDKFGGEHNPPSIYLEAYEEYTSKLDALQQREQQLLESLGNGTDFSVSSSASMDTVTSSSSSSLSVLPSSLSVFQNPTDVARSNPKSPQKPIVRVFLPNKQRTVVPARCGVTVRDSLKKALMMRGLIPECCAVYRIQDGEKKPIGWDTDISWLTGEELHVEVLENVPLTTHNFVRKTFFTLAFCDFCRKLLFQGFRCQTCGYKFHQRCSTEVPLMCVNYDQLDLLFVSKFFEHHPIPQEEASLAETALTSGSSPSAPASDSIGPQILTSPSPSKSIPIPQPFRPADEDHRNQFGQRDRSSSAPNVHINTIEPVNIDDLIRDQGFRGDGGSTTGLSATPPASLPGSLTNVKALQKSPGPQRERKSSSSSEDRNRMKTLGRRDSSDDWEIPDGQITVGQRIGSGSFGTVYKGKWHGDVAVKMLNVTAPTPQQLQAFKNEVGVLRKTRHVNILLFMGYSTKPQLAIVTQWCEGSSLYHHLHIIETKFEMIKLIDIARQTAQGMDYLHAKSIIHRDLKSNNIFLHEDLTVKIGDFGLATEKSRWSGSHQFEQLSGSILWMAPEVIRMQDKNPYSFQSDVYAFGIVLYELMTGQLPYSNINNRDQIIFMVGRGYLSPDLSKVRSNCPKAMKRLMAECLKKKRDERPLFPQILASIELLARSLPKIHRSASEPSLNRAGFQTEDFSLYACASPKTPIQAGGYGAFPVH
BRAF V600E, test compound and CRBN ternary complex, sequence (P15056 whole entry V600E): as above
BRAF V600E, test compound and CRBN ternary complex, sequence (Q96SW2 whole entry): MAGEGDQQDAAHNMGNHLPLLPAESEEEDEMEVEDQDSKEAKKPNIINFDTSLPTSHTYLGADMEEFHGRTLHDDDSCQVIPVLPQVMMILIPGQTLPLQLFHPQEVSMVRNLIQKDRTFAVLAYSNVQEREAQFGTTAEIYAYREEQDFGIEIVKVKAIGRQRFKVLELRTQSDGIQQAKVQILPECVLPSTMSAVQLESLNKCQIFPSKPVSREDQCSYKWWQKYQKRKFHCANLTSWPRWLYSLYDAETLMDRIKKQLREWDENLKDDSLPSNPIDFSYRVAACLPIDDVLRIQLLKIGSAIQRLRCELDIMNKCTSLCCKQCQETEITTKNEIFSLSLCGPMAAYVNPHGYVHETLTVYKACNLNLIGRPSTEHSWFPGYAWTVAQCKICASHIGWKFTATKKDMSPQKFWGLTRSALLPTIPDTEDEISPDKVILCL

CCN(C)S(=O)(=O)Nc1ccc(F)c(Oc2ccc3ncn([C@H]4COC5(CCN(C(=O)CC6(O)CCN(c7cc8c(cc7F)c(N7CCC(=O)N(C)C7=O)nn8C)CC6)CC5)C4)c(=O)c3c2)c1C#N [Compound 157^NMe, reference compound]
cell growth inhibition [1]: not inhibited as significantly
GI50 (A375 cells [2]): 0.0225 µM
cell growth inhibition [3]: not inhibited
ERK phosphorylation by western blot (ERK phosphorylation [4]): not as pronounced
GI50 (A375-NRAS^Q61K cells): 0.794 µM
IC50 (phospho-ERK (T202/Y204) [5]): 0.0368 µM
cellular confluence (A375 cells [6]): approximately 70%
Ternary complex formation (concentration dependence) [7]: no complex formation was observed
BRAF V600E levels (BRAF V600E): remain unchanged
IC50 (phospho-ERK (T202/Y204) [8]): 0.0135 µM

CC(C)(C)c1nc(-c2cccc(NS(=O)(=O)c3c(F)cccc3F)c2F)c(-c2ccnc(N)n2)s1 [dabrafenib, reference compound]
LOXL4 protein level change (LOXL4): decreased on the dabrafenib treated samples, to a lesser extent

COC(=O)N[C@@H](C)CNc1nccc(-c2cn(C(C)C)nc2-c2cc(Cl)cc(NS(C)(=O)=O)c2F)n1 [encorafenib, reference compound]
cell growth inhibition [1]: no activity; also recorded: does not inhibit cell growth
GI50 (A375 cells [2]): 0.008 µM
cell growth inhibition [3]: does not inhibit cell growth
GI50 (A375-NRAS^Q61K cells): 0.911 µM
ERK phosphorylation, in combination with trametinib (ERK phosphorylation [9]; with 1 nM trametinib): unable to significantly suppress
ERK phosphorylation, alone (ERK phosphorylation [9]; without trametinib): unable to significantly suppress
IC50 (phospho-ERK (T202/Y204) [5]): 0.031 µM
tumor response, in combination with trametinib [10]: no activity
IC50 (phospho-ERK (T202/Y204) [8]): 0.0021 µM
